Active and inactive are the calls of the source.
Legend:
Cysteine protease ATG4B = biological target: T1, Cysteine protease ATG4B (Homo sapiens, UniProt Q9Y4P1); assay type: functional;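 also: Fluorescence-based dose-response confirmation assay measuring inhibition of ATG4B activity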
T1 sequence (Q9Y4P1 whole entry): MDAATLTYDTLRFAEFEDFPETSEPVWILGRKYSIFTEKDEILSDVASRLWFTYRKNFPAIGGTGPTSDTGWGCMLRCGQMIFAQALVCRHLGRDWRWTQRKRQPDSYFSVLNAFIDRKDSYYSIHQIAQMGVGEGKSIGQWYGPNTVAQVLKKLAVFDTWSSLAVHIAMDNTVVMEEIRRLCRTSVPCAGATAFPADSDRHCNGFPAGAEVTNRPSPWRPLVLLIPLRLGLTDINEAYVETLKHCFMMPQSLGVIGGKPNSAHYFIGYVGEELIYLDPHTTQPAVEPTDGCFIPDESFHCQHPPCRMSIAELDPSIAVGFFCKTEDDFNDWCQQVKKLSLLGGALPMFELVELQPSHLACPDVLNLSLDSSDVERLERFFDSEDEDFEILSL

Phospholipase A2 = Phospholipase A2 (Homo sapiens, UniProt P04054); assay type: functional;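 also: confirmatory dose-response counterscreen on phospholipase A2, testing hits that came from an ultra-high-throughput screen for ATG4B inhibitors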
Phospholipase A2, sequence (P04054 whole entry): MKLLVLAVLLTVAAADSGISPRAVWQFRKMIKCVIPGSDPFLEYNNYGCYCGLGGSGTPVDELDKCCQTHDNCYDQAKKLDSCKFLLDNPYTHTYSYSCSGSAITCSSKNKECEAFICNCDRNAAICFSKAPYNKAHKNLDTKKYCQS

H9c2 = experiment: cells; assay type: functional, cell-based; conditions: Rattus norvegicus, H9c2, Myocardium;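 also: confirmatory concentration-response retest of ultra-high-throughput screening hits for modulation of myocardial damage; cell death induced by hydrogen peroxide oxidative stress; compound pretreatment for 60 min then peroxide exposure for 2 h; potency is for protecting the cells against peroxide damage rather than for killing them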
[1] = HEp-2 cell cytotoxicity, dose response, cytotoxicity control for RSV inhibitor project, HTS (AID 2410); assay type: functional; conditions: human respiratory syncytial virus
[2] = test system: Streptococcus sp. 'group A'; experiment: growth inhibition of control SK(-) GAS strain, dose response, counter-screen for streptokinase expression inhibitor project, luminescence, kanamycin, BacTiterGlo, confirmation (AID 1900); assay type: functional, organism-based
Streptokinase A = biological target: T2, Streptokinase A (Streptococcus pyogenes serotype M1, UniProt P10520); experiment: S. pyogenes streptokinase expression inhibitors, potency, dose response, plasminogen activation absorbance, OD405 (AID 1914); assay type: functional, Streptococcus pyogenes M1 GAS;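 also: secreted streptokinase activity via plasminogen activation per viability signal from cell pellet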
T2 sequence (P10520 whole entry): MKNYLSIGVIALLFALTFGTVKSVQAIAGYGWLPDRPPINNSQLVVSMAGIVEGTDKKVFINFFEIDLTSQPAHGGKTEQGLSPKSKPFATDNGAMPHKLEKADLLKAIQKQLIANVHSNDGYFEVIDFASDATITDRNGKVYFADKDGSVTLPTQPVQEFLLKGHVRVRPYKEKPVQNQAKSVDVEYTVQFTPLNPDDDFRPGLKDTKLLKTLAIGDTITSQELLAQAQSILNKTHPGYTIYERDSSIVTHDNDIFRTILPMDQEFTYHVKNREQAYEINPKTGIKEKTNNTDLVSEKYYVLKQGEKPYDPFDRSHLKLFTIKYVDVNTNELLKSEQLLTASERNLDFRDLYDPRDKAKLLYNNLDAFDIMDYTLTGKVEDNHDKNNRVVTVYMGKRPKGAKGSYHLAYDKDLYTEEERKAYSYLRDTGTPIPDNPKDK

Streptococcus = experiment: Group A Streptococcus viability loss, dose response, counter-screen for streptokinase expression inhibitor project, luminescence, BacTiterGlo (AID 1915); assay type: functional, organism-based;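 also: potency for reduction of bacterial viability or growth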
Caspase-3 = biological target: T3, Caspase-3 (Homo sapiens, UniProt P42574); assay type: functional;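 also: Dose-response selectivity test against caspase-3 for candidate inhibitors of sentrin-specific proteases (SENPs)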
T3 sequence (P42574 whole entry): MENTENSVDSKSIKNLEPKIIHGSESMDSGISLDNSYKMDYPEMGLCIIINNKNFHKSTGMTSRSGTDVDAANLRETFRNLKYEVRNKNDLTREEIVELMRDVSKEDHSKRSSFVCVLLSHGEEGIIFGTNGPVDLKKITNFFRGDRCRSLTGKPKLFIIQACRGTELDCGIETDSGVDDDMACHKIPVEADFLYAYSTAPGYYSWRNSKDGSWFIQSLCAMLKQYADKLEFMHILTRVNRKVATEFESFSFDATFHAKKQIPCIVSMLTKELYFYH

[3] = biological target: T4, Sentrin-specific protease 7 (Homo sapiens, UniProt Q9BQF6); assay type: functional;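 also: Luminescence-based dose-response confirmation of ultra-high-throughput screening hits, measuring inhibition of SENP7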
T4 sequence (Q9BQF6 whole entry): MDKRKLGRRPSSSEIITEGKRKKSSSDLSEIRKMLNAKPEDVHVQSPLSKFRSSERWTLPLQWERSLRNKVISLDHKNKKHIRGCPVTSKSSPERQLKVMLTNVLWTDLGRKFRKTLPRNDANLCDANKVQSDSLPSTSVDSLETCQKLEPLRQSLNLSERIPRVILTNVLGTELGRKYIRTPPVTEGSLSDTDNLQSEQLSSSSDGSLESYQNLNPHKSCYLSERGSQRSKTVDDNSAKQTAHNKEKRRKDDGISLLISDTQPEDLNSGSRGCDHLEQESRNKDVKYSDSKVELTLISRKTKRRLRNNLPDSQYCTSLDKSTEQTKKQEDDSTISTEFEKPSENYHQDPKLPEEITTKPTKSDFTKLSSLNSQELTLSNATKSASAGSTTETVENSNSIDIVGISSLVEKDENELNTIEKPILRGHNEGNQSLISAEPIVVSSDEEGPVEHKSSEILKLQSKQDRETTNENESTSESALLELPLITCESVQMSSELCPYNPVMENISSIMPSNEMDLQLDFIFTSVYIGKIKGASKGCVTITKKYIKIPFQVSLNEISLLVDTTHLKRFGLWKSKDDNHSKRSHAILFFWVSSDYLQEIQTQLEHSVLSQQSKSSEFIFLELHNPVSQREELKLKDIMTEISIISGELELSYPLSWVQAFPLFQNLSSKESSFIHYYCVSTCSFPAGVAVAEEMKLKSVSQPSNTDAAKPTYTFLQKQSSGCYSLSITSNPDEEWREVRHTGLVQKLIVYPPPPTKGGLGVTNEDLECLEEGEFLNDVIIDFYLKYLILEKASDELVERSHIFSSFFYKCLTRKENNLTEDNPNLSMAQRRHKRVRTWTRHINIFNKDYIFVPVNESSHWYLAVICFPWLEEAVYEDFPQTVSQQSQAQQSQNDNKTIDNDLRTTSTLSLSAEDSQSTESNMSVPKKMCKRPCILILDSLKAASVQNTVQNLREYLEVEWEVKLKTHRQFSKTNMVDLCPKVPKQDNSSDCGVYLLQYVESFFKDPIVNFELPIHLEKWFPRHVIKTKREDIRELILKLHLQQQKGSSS

[4] = biological target: T5, Sentrin-specific protease 6 (Homo sapiens, UniProt Q9GZR1); assay type: functional;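 also: Luminescence-based dose-response confirmatory assay of SENP6 inhibition, following up an ultra-high-throughput screen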
T5 sequence (Q9GZR1 whole entry): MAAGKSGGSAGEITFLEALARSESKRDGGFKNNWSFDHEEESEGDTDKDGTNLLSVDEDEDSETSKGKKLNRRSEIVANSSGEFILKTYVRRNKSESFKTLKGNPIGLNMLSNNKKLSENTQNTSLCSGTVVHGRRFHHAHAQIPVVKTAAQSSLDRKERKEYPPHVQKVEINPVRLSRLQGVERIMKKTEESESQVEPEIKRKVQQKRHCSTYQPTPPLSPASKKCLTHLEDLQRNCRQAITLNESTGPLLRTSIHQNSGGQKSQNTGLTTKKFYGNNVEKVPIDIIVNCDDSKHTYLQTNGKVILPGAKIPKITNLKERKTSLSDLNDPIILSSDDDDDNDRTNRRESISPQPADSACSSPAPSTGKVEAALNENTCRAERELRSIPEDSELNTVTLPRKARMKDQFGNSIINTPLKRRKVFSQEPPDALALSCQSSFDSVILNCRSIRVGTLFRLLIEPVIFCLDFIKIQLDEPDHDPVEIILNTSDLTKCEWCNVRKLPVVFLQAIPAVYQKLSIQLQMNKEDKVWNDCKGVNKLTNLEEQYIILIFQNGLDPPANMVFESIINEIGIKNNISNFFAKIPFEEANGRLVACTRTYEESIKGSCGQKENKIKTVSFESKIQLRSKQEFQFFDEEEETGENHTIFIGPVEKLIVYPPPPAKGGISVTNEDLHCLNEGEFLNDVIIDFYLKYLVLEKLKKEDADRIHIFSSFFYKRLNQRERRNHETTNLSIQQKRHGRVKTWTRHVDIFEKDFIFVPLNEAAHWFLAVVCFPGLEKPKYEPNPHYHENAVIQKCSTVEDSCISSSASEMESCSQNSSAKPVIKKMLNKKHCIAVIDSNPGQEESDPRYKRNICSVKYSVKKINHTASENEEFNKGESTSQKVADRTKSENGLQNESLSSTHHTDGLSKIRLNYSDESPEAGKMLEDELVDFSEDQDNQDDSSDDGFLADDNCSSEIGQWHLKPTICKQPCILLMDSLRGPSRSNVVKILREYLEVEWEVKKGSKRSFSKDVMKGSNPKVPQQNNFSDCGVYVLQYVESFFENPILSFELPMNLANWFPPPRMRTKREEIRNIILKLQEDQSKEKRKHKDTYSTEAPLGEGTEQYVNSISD

[5] = biological target: T6, Sentrin-specific protease 8 (Homo sapiens, UniProt Q96LD8); assay type: functional;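 also: luminescence read-out of SENP8 inhibition, dose-response confirmation following an ultra-high-throughput screen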
T6 sequence (Q96LD8 whole entry): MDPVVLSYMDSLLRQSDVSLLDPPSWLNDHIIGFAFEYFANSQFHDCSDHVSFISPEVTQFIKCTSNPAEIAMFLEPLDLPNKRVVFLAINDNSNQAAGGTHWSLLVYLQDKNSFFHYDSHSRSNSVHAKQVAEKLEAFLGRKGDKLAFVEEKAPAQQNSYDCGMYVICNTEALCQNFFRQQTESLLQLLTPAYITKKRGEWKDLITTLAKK

[6] = NIH-3T3 fibroblast cytotoxicity, dose response, cytotoxicity control, cell-based, fluorescence, Alamar Blue, secondary assay (AID 2327); assay type: functional;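 also: NIH-3T3 mouse fibroblasts cultured with fluconazole at 8 µg/mL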
[7] = C. albicans growth with fluconazole, confirmation, fluorescence, retest (AID 2467); assay type: functional, cell-based
[8] = biological target: Heat shock protein HSP 90-alpha (Homo sapiens, UniProt P07900); assay type: functional, organism-based
INS1 = experiment: beta cell apoptosis inhibitors, cytokine rescue, dose response, luminescence, retest (AID 449756); assay type: functional, cell-based; conditions: Rattus norvegicus;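 also: cell death triggered by IL-1 beta plus TNF-alpha plus IFN-gamma mixture; protective hits raise ATP signal compared with cytokine alone wells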
Aminopeptidase N = biological target: T7, Aminopeptidase N (Plasmodium falciparum FcB1/Columbia, UniProt O96935); experiment: P. falciparum M1AAP inhibitors, biochemical, fluorogenic H-Leu-NHMec substrate, 1536-well (AID 1445); design: species or system Plasmodium falciparum 3D7, 3D7
T7 sequence (O96935 whole entry): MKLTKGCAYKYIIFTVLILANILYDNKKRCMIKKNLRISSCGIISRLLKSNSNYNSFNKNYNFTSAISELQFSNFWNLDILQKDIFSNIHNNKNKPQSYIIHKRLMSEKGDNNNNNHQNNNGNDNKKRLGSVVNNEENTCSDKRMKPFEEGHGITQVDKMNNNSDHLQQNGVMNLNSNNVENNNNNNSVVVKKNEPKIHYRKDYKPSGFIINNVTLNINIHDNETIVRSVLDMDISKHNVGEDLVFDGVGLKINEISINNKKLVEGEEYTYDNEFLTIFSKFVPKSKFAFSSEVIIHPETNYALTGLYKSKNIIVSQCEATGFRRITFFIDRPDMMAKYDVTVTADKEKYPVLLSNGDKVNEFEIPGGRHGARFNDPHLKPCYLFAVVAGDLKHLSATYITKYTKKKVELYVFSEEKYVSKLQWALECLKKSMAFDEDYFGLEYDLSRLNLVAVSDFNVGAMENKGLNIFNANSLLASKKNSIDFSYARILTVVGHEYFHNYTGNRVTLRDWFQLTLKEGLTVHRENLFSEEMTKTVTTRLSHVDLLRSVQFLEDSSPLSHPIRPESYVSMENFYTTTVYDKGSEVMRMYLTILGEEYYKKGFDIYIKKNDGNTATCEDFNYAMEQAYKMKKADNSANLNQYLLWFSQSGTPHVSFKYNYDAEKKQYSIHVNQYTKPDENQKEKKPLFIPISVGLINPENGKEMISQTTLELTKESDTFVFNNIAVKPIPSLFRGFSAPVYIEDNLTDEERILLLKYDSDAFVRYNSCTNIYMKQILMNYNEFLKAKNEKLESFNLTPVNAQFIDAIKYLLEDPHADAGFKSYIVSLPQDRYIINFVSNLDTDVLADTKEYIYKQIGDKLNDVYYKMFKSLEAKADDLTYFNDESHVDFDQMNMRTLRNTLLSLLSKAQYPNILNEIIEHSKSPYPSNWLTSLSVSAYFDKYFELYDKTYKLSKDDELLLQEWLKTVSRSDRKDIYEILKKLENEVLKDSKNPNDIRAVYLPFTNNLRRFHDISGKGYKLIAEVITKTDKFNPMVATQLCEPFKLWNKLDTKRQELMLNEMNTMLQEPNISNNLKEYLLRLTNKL

Compound | IC50 (Cysteine protease ATG4B) | IC50 (Phospholipase A2) | IC50 (Caspase-3) | IC50 [3] | IC50 [4] | IC50 [5] | also measured
O=C(Nc1nc2c(cc3c4c(cccc42)CC3)s1)c1ccccc1Cl | > 80 µM (inactive) | 15.7 µM (active) | – | – | – | – | –
CN(C)S(=O)(=O)c1ccc2[nH]cc(/C=C/c3nc4ccccc4c(=O)n3-c3ccccc3)c2c1 | 18.6 µM (active) | 46.6 µM (inactive) | – | – | – | – | IC50 (H9c2): > 79 µM (inactive)
C=CCn1c(-c2oc3nc(-c4ccccc4)cc(-c4ccccc4)c3c2N)n[nH]c1=S | 21.5 µM (inactive) | 20.7 µM (inactive) | – | – | – | – | –
Cc1ccc(S(=O)(=O)Nc2ccccc2/C=N/c2nc3ccccc3n2C(C)C)cc1 | 15.1 µM (active) | 13.2 µM (active) | – | – | – | – | CC50 [1]: 14.9 µM (active)
Cc1nc(N/N=C\c2ccc3c(c2)OCO3)sc1C | – | – | 33.2 µM (active) | 12 µM (active) | 39.1 µM (active) | 72.7 µM (active) | EC50 [2]: 23.6 µM (active); EC50 (Streptokinase A): > 150 µM (not active); EC50 (Streptococcus): 31.7 µM (active)
COc1ccc(C(=O)NC(=S)NNC(=O)c2cnccn2)cc1 | – | – | – | – | – | – | EC50 [6]: 9.88 µM (active); EC50 [7]: 2.02 µM (active); AC50 [8]: 2.71 µM (active); AC50 (INS1): 0.933 µM (active)
OC(c1ccc(OCc2ccccc2)cc1)c1nnc(-c2ccccc2)o1 (stereo unspecified) | – | – | 69.2 µM (active) | 12.8 µM (active) | 33.2 µM (active) | 75.6 µM (active) | EC50 [2]: 19 µM (active); EC50 (Streptokinase A): 77.8 µM (active); EC50 (Streptococcus): > 150 µM (not active)
COc1ccc2oc3ccc(OC)cc3c(=O)c2c1 | – | – | 11 µM (active) | 9.8 µM (active) | 15.1 µM (active) | 69.1 µM (active) | –
C=CCn1c(C)cc(C(=O)CSc2nnc(NCc3ccccc3)s2)c1C | – | – | – | – | – | – | AC50 [8]: 4.03 µM (active)
Cc1cccc(C)c1OCc1nc2ccccc2c(=O)n1/N=C/c1ccc(OCC(=O)O)cc1 | 14.7 µM (active) | 9.81 µM (active) | – | – | – | – | IC50 (Aminopeptidase N): < 1 µM (active)
